One compound from patent US20230057984A1, “NORMALIZATION OF CULTURE OF CORNEAL ENDOTHELIAL CELLS” (KYOTO PREFECTURAL PUBLIC UNIVERSITY CORPORATION, priority 2011, published 2023) can be followed below.

The test system of this assay is Cynomolgus monkey corneal endothelial cells. Kind of assay: PCR of Na+/K+-ATPase and ZO-1 mRNA in monkey corneal endothelial cells (Example 3). In kind it is cell-based. The following applies: monkey CEC treated with SB431542 vs fibroblast phenotype control. The protocol:
Method of culturing and the like was conducted in a similar manner as the Comparative Examples. In particular, materials similar to those in Example 2 were used. • SB431542: this was obtained from TOCRIS (catalog number: 1614). • Antibodies to Na^+/K^+-ATPase: those obtained from MILLIPORE (catalog number: 05-369) were used. • Antibodies to ZO-1: mice, those obtained from INVITROGEN (catalog number: 339100) were used; and rabbits, those obtained from ZYMED LABORATORIES (catalog number: 61-7300) were used. • Antibodies to GAPDH: those obtained from ABCAM (catalog number: ab36840) were used. • Immunostaining and the like: cells cultured in a similar manner to Example 2 were fixed and immunostaining was performed on Na^+/K^+-ATPase and ZO-1, followed by taking an image using a fluorescence microscope. • Western blot method: similar to Example 1, a Western blot method was performed on the Na^+/K^+-ATPase, ZO-1, and GAPDH. • Realtime PCR method: in addition, PCR was performed for Na^+/K^+-ATPase, ZO-1, and GAPDH in the following method. The primers were purchased from an oligonucleotide synthesizing company, INVITROGEN, and desalted primer were used. […] Amplified DNA fragments were electrophoresed in a 1.5% agarose gel, and were detected by ethidium bromide staining.

With `NC(=O)c1ccc(-c2nc(-c3ccc4c(c3)OCO4)c(-c3ccccn3)[nH]2)cc1` [SB431542], the “expression of Na+/K+-ATPase and ZO-1, mRNA level (PCR)” value is on record as “strongly enhanced”.
